One test has as its system Aβ1-40. As to the kind of experiment: Measurement of Aβ1-40 in culture medium of 7W WT APP751 CHO cells by ELISA. It is filed as cell-based, Chinese hamster. To be noted: for Aβ1-40 (% of control): CHO cells that overexpress APP751, zero = below the detection limit of the assay; for activity at 5 µM: Cricetulus griseus, Table 1, 5 μM test compound, CHO cells stably transfected with human APP751, culture medium, ELISA, control DMSO, 0 = no detectable amount. In general terms: ELISA stands for enzyme-linked immunosorbent assay.

In another test the test system is Aβ1-42. As to the kind of experiment: Measurement of Aβ1-42 in culture medium of 7W WT APP751 CHO cells by ELISA. The class given is cell-based, Chinese hamster. To be noted: for Aβ1-42 (% of control): CHO cells that overexpress APP751, zero = below the detection limit of the assay; for activity at 5 µM: Cricetulus griseus, Table 1, 5 μM test compound, CHO cells stably transfected with human APP751, culture medium, ELISA, control DMSO, 0 = no detectable amount, read-out: Aβ1-42 (% of control).

Molecules are shown by their SMILES.
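Also: 5 µM test compound but RI-coded compounds at 10 µM for 24 hours.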

On to `CC1=C(C(=O)Nc2ccccc2C)C(c2cccs2)C(C#N)=C(SCC(=O)Nc2ccc(C)c(Cl)c2)N1` (stereo not shown) [ST050840, N-(3-chloro-4-methylphenyl)-2-{3-cyano-6-methyl-5-[N-(2-methylphenyl)carbamoyl]-4-(2-thienyl)(2-1,4-dihydropyridylthio)}acetamide], for which, in the test on Aβ1-40, the “Aβ1-40 (% of control)” value is recorded as 52.3 % of control. In addition, the “Aβ1-42 (% of control)” value in the test with Aβ1-42 is 38.84 % of control.

Regarding `CC1=C(C(=O)Nc2ccccc2)C(c2cccs2)C(C#N)=C(SCC(=O)Nc2ccc(C)c(Cl)c2)N1` (stereo not shown) [ST050842, N-(3-chloro-4-methylphenyl)-2-[3-cyano-6-methyl-5-(N-phenylcarbamoyl)-4-(2-thienyl)(2-1,4-dihydropyridylthio)]acetamide], the “Aβ1-40 (% of control)” value in the test with Aβ1-40 is reported as 37.46 % of control. In addition, the “Aβ1-42 (% of control)” value in the test on Aβ1-42 was 52.06 % of control.

In the case of `N#CC1=C(N)NC(SCC(N)=O)=C(C#N)C1c1ccccc1Cl` (stereo not shown) [ST050859, 2-[6-amino-4-(2-chlorophenyl)-3,5-dicyano-2-1,4-dihydropyridylthio]acetamide], the “Aβ1-40 (% of control)” value in the test with Aβ1-40 is given as 75.54 % of control. Besides, the “Aβ1-42 (% of control)” value with Aβ1-42 was 35.47 % of control.

For the compound `COC(=O)CSC1=C(C#N)C(c2ccc(Cl)cc2)C(C(=O)OC(C)(C)C)=C(C)N1` (stereo not shown) [ST050862, methyl 2-{5-[(tert-butyl)oxycarbonyl]-4-(4-chlorophenyl)-3-cyano-6-methyl-2-1,4-dihydropyridylthio}acetate], in the test on Aβ1-40, the “Aβ1-40 (% of control)” value was 65.24 % of control. The “Aβ1-42 (% of control)” value in the test on Aβ1-42 was 56.21 % of control.

Regarding `CSC1=C(C#N)C(c2ccc(Cl)cc2)C(C(=O)OC(C)(C)C)=C(C)N1` (stereo not shown) [ST050983, tert-butyl 4-(4-chlorophenyl)-5-cyano-2-methyl-6-methylthio-1,4-dihydropyridine-3-carboxylate], the “Aβ1-40 (% of control)” value with Aβ1-40 was 51.3 % of control. In the test on Aβ1-42, the “Aβ1-42 (% of control)” value was 0 % of control.

For `CC1=C(C(=O)OC(C)(C)C)C(c2ccc(Cl)cc2)C(C#N)=C(SCC(=O)Nc2ccc(C)cc2)N1` (stereo not shown) [ST051142, tert-butyl 4-(4-chlorophenyl)-5-cyano-2-methyl-6-{[N-(4-methylphenyl)carbamoyl]methylthio}-1,4-dihydropyridine-3-carboxylate], the “Aβ1-40 (% of control)” value with Aβ1-40 is given as 94.85 % of control. Besides, the “Aβ1-42 (% of control)” value with Aβ1-42 was 46.06 % of control.

Take `CC1=C(C(=O)Nc2ccc(Cl)cc2)C(c2ccccc2)C(C#N)=C(SCC(=O)Nc2cccc(C)c2)N1` (stereo not shown) [ST051153, 2-{5-[N-(4-chlorophenyl)carbamoyl]-3-cyano-6-methyl-4-phenyl(2-1,4-dihydropyridylthio)}-N-(3-methylphenyl)acetamide]: the “Aβ1-40 (% of control)” value in the test with Aβ1-40 was 4.933 % of control. Further, the “Aβ1-42 (% of control)” value with Aβ1-42 was 0 % of control.

`CC1=C(C(=O)Nc2ccccc2C)C(c2ccco2)C(C#N)=C(SCC(=O)Nc2cccc(Cl)c2C)N1` (stereo not shown) [ST051156, N-(3-chloro-2-methylphenyl)-2-{3-cyano-4-(2-furyl)-6-methyl-5-[N-(2-methylphenyl)carbamoyl](2-1,4-dihydropyridylthio)}acetamide]: the “Aβ1-40 (% of control)” value with Aβ1-40 was 86.64 % of control. In addition, the “Aβ1-42 (% of control)” value with Aβ1-42 was 68.02 % of control.

`CCOc1ccc(NC(=O)CSC2=C(C#N)C(c3ccco3)C(C(=O)Nc3ccccc3C)=C(C)N2)cc1` (stereo not shown) [ST051158, 2-{3-cyano-4-(2-furyl)-6-methyl-5-[N-(2-methylphenyl)carbamoyl](2-1,4-dihydropyridylthio)}-N-(4-ethoxyphenyl)acetamide]: in the test on Aβ1-40, the “Aβ1-40 (% of control)” value is on record as 17.68 % of control. The “Aβ1-42 (% of control)” value in the test on Aβ1-42 is listed as 15.87 % of control.

Take `Cc1c(Cl)cccc1NC(=O)CSC1=C(C#N)C(c2cccs2)C2=C(CC(C)(C)CC2=O)N1` (stereo not shown) [ST051161, N-(3-chloro-2-methylphenyl)-2-(3-cyano-7,7-dimethyl-5-oxo-4-(2-thienyl)(2-1,4,6,7,8-pentahydroquinolylthio))acetamide]: the results for the activity at 5 µM in the test on Aβ1-40 and in the test on Aβ1-42 were 13% and 25.4%, respectively.

Regarding `COC(=O)C1=CN(C2CC2)C=C(C(=O)OC)C1c1cc2c(cc1Cl)OCO2` [ST051458, methyl 4-(6-chloro(2H-benzo[d]1,3-dioxolan-5-yl))-1-cyclopropyl-5-(methoxycarbonyl)-1,4-dihydropyridine-3-carboxylate], the “Aβ1-40 (% of control)” value in the test with Aβ1-40 is on record as 77.81 % of control. The “Aβ1-42 (% of control)” value in the test on Aβ1-42 is 59.9 % of control.

For `COC(=O)C1=CN(CC2CCCO2)C=C(C(=O)OC)C1c1cccc(OC)c1OC` (stereo not shown) [ST051459, methyl 4-(2,3-dimethoxyphenyl)-5-(methoxycarbonyl)-1-(oxolan-2-ylmethyl)-1,4-dihydropyridine-3-carboxylate], the “Aβ1-40 (% of control)” value in the test on Aβ1-40 is on record as 70.09 % of control. For the same compound, in the test on Aβ1-42, the “Aβ1-42 (% of control)” value was 85.96 % of control.

Turning to `COc1cc(OC)c(C2C(C(=O)OC3CCCC3)=C(C)NC3=C2C(=O)CC(c2cccs2)C3)cc1OC` (stereo not shown) [ST051557, cyclopentyl 2-methyl-5-oxo-7-(2-thienyl)-4-(2,4,5-trimethoxyphenyl)-1,4,6,7,8-pentahydroquinoline-3-carboxylate], the activity at 5 µM stood at 57.3% in the test on Aβ1-40 and 93.1% with Aβ1-42.

Consider `CC1=C(C(=O)OCC(C)C)C(c2ccccc2F)C2=C(CC(c3cccs3)CC2=O)N1` (stereo not shown) [ST051566, 2-methylpropyl 4-(2-fluorophenyl)-2-methyl-5-oxo-7-(2-thienyl)-1,4,6,7,8-pentahydroquinoline-3-carboxylate], for which the activity at 5 µM came to 63.4% in the test with Aβ1-40 and 96.1% in the test with Aβ1-42.

In the case of `CC1=C(C(=O)OC2CCCC2)C(c2ccc(C)o2)C2=C(CC(c3cccs3)CC2=O)N1` (stereo not shown) [ST051567, cyclopentyl 2-methyl-4-(5-methyl(2-furyl))-5-oxo-7-(2-thienyl)-1,4,6,7,8-pentahydroquinoline-3-carboxylate], the activity at 5 µM with Aβ1-40 stood at 60.4%; with Aβ1-42, 85%.

In the case of `COC(=O)C1=CN(CC2CCCO2)C=C(C(=O)OC)C1c1cccc(Br)c1` (stereo not shown) [ST051569, methyl 4-(3-bromophenyl)-5-(methoxycarbonyl)-1-(oxolan-2-ylmethyl)-1,4-dihydropyridine-3-carboxylate], the “Aβ1-40 (% of control)” value with Aβ1-40 is reported as 49.02 % of control. For the same compound, the “Aβ1-42 (% of control)” value with Aβ1-42 is listed as 72.77 % of control.

In the case of `CCSCCOC(=O)C1=C(C)NC2=C(C(=O)CC(c3cccs3)C2)C1c1cccc(Cl)c1` (stereo not shown) [ST051570, 2-ethylthioethyl 4-(3-chlorophenyl)-2-methyl-5-oxo-7-(2-thienyl)-1,4,6,7,8-pentahydroquinoline-3-carboxylate], the activity at 5 µM in the test on Aβ1-40 is 31.7%; with Aβ1-42, 93.8%.

As for `COc1ccc(C2C(C(=O)OC3CCCC3)=C(C)NC3=C2C(=O)CC(c2cccs2)C3)c(OC)c1OC` (stereo not shown) [ST051571, cyclopentyl 2-methyl-5-oxo-7-(2-thienyl)-4-(2,3,4-trimethoxyphenyl)-1,4,6,7,8-pentahydroquinoline-3-carboxylate], the figures for the activity at 5 µM in the test on Aβ1-40 and in the test with Aβ1-42 were 40.4% and 62.1%, respectively.

As for `CC1=C(C(=O)OCC2CCCO2)C(c2cccc(Cl)c2)C2=C(CC(c3cccs3)CC2=O)N1` (stereo not shown) [ST051818, oxolan-2-ylmethyl 4-(3-chlorophenyl)-2-methyl-5-oxo-7-(2-thienyl)-1,4,6,7,8-pentahydroquinoline-3-carboxylate], the values for the activity at 5 µM in the test with Aβ1-40 and with Aβ1-42 were 37% and 72.9%, respectively.

`COc1ccc(C2C(C#N)=C(N)N(c3ccccc3Cl)C3=C2C(=O)CCC3)cc1O` (stereo not shown) [ST051958, 2-amino-1-(2-chlorophenyl)-4-(3-hydroxy-4-methoxyphenyl)-5-oxo-1,4,6,7,8-pentahydroquinoline-3-carbonitrile]: the activity at 5 µM in the test with Aβ1-40 is 56.6%; in the test on Aβ1-42, 80.2%.

With `N#CC1=C(N)N(c2c(F)cccc2F)C2=C(C(=O)CCC2)C1c1ccsc1` (stereo not shown) [ST051960, 2-amino-1-(2,6-difluorophenyl)-5-oxo-4-(3-thienyl)-1,4,6,7,8-pentahydroquinoline-3-carbonitrile], the values for the activity at 5 µM in the test with Aβ1-40 and in the test with Aβ1-42 were 48.8% and 86.3%, respectively.

As to `CC1(C)CC(=O)C2=C(C1)N(c1ccc(Br)cc1)C(N)=C(C#N)C2c1ccc(C(C)(C)C)s1` (stereo not shown) [ST052026, 2-amino-4-[5-(tert-butyl)(2-thienyl)]-1-(4-bromophenyl)-7,7-dimethyl-5-oxo-1,4,6,7,8-pentahydroquinoline-3-carbonitrile], the activity at 5 µM with Aβ1-40 worked out at 13.5%; with Aβ1-42, 25.3%.

Turning to `CC1(C)CC(=O)C2=C(C1)N(c1ccc(Br)cc1F)C(N)=C(C#N)C2c1ccc(Cl)cc1Cl` (stereo not shown) [ST052048, 2-amino-4-(2,4-dichlorophenyl)-1-(4-bromo-2-fluorophenyl)-7,7-dimethyl-5-oxo-1,4,6,7,8-pentahydroquinoline-3-carbonitrile], the activity at 5 µM with Aβ1-40 worked out at 58.9%; with Aβ1-42, 33%.

Take `CCn1c2ccccc2c2cc(C3C(C(=O)OC4CCCC4)=C(C)NC4=C3C(=O)CC(C)(C)C4)ccc21` (stereo not shown) [ST052173, cyclopentyl 4-(9-ethylcarbazol-3-yl)-2,7,7-trimethyl-5-oxo-1,4,6,7,8-pentahydroquinoline-3-carboxylate]: the figures for the activity at 5 µM with Aβ1-40 and with Aβ1-42 were 64.7% and 32.5%, respectively.

Turning to `CCn1c2ccccc2c2cc(C3C(C(=O)OCC4CCCO4)=C(C)NC4=C3C(=O)CCC4)ccc21` (stereo not shown) [ST052207, oxolan-2-ylmethyl 4-(9-ethylcarbazol-3-yl)-2-methyl-5-oxo-1,4,6,7,8-pentahydroquinoline-3-carboxylate], the activity at 5 µM in the test with Aβ1-40 was found to be 52.3%; with Aβ1-42 it was 59.6%.

In the case of `CC1=C(C(=O)OCCOc2ccccc2)C(c2ccccc2Br)C2=C(CCCC2=O)N1` (stereo not shown) [ST052219, 2-phenoxyethyl 4-(2-bromophenyl)-2-methyl-5-oxo-1,4,6,7,8-pentahydroquinoline-3-carboxylate], the activity at 5 µM in the test on Aβ1-40 was 14%; with Aβ1-42, 24.7%.

The values above are taken from patent US20100119599A1 (ARCHER PHARMACEUTICALS, INC., priority 2006, published 2010).
